{
  "source": "paper PMC4501791",
  "about": "“Molecular Design, Synthesis and Trypanocidal Activity of Dipeptidyl Nitriles as Cruzain Inhibitors” (PLoS Neglected Tropical Diseases, 2015);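 as to Ki: fluorometric read-out of substrate hydrolysis at excitation 355 nm and emission 460 nm, initial rates over 5 min, Ki from nonlinear kinetic fits, duplicate runs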",
  "key": {"[1]": {"system": "T. cruzi Tulahuen strain amastigotes", "assay": "Trypanocidal activity against amastigote forms in LLCMK2 cells, Tulahuen strain", "assay_type": "cell-based", "details": "Trypanosoma cruzi, T. cruzi Tulahuen strain; for EC50: LLC-MK2, amastigote, read-out: pEC50 ama Tula (converted); for killing at 32 µM: LLC-MK2, 120 h, amastigote lysis, 5 days, read-out: %cell lysis at 32 μM ama Tula", "protocol": "(§1) The assays against amastigote forms were performed in LLCMK2 cells. Previously, the cells were cultivated in 96-wells microplates (10^3 cells/well). […] After this, the microplates were incubated at 37°C, in CO2 atmosphere, for 5 days. Then, 10 μL of FluoReporter lacZ/Galactosidase Quantitative Kit (Life Technologies) were added and after 30 minutes the fluorometric reaction was read in a microplate reader (Synergy H1, Biotek) at 386 nm excitation and 448 nm emission. For both assays the percentage of parasite lysis was determined from the following formula: %lysis = 100 –{[(X-PC)/(PC-NC)]x100}, where the optical density values of the samples (X), the positive controls (PC) and negative controls (NC) were used. Culture medium was used as positive control (PC) and medium with 0.6% DMSO (v/v) as negative control (NC). All assays were performed in triplicate with two independent experiments."}, "[2]": {"biological_target": "T1, cruzain (Trypanosoma cruzi, UniProt P25779)", "T1 construct": "made in house", "T1 sequence (P25779 123-337 limits assumed)": "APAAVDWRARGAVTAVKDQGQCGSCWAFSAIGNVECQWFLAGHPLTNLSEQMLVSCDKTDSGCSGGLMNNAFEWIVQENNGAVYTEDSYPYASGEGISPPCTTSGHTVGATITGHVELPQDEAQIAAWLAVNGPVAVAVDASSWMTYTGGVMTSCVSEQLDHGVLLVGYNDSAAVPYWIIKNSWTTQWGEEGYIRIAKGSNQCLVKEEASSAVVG", "assay": "biochemical", "details": "37°C, pH 5.5, substrate Z-FR-AMC", "protocol": "Enzyme kinetic assays were carried out at 37°C in 200 L of a solution containing 100 mM acetate buffer pH 5.5, 300 mM NaCl, 5 mM DTT (dithiothreitol), 5% v/v DMSO (dimethyl sulfoxide), 0.01% v/v Triton X-100 and 0.15 nM cruzain, using Corning® 96-well black flat bottom microplates. The rate of the reaction was monitored using a Biotek Synergy HT plate reader through the fluorescence emission at 460 nm (excitation at 355 nm) due to the hydrolysis of the substrate Z-Phe-Arg-7-amido-4-methylcoumarin (Z-FR-AMC, Sigma-Aldrich). The enzyme stock aliquot was rapidly thawed at 37°C and kept on ice until activation, in which it was incubated for 20 min. in the assay buffer (100 mM acetate pH 5.5 and 5 mM DTT) followed by additional 2 min. incubation with inhibitors before the reaction was started by the addition of the substrate.\nVisual inspection and a pre-reading of plate wells were performed to check for possible precipitation and background fluorescence, respectively. Fluorescence emission spectra were also recorded for all inhibitors, using the same excitation wavelength (355 nm) as for the fluorometric assay. […] The reaction was started by the addition of varying concentrations of the substrate and the wells monitored for a total of 5 minutes of reaction. The initial velocities of the substrate hydrolysis under first-order reaction were calculated by Gen5 Biotek software based on the linear-regression coefficient from the fit to data of Relative Fluorescence Unit (mRFU) as a function of time (min).\nEach experiment was performed in duplicates for each compound being tested. […] All inhibitors were evaluated in two different concentrations, which were chosen based on a previous screening (percentage of inhibition) at 1.7 μM substrate (~K M). […] SigmaPlot (v. 10.0) was employed for the non-linear fit and the kinetic parameters determination."}, "[3]": {"biological_target": "T1, cruzain", "assay": "Reversibility assay: recovery of cruzain activity after rapid large dilution", "assay_type": "biochemical", "details": "4.5 μM compound incubated with 15 nM cruzain for 30 min, diluted 100-fold", "procedure": "The progress curve for this sample was then measured and compared to that of a similar sample of enzyme incubated and diluted in the absence of inhibitor. The irreversible inhibitor E-64 (CAS 66701-25-5, Sigma Aldrich) was used as reference."}, "[4]": {"system": "T. cruzi CL-Brener strain amastigotes", "assay": "Trypanocidal activity against amastigote forms in LLCMK2 cells, CL-Brener strain", "assay_type": "cell-based", "details": "Trypanosoma cruzi, LLC-MK2, 120 h, amastigote lysis, 5 days, read-out: %cell lysis at 32 μM ama Brener", "protocol": "as §1"}, "[5]": {"system": "LLCMK2 cells", "assay": "Lysis of LLCMK2 host cells", "assay_type": "cell-based", "details": "Macaca mulatta, LLC-MK2, 32 μM, read-out: %cell lysis at 32 μM LLCMK2"}},
  "data": [
    {"smiles": "N#CCNC(=O)[C@H](Cc1ccccc1)NC(=O)c1ccccc1", "note": "[Compound 5, (2S)-N-(cyanomethyl)-3-phenyl-2-(phenylformamido)propanamide]", "values": [
      {"measurement": "EC50", "setting": "[1]", "value": 126, "unit": "µM"},
      {"measurement": "Ki", "setting": "[2]", "value": 0.501, "unit": "µM"},
      {"measurement": "reversibility of inhibition", "setting": "[3]", "value": "reversible"}
    ]},
    {"smiles": "N#CC1(NC(=O)[C@H](Cc2ccccc2)NC(=O)c2ccccc2)CC1", "note": "[Compound 7, (2S)-N-(1-cyanocyclopropyl)-3-phenyl-2-(phenylformamido)propanamide]", "values": [
      {"measurement": "killing at 32 µM", "setting": "[1]", "value": "16 ± 10", "unit": "%"},
      {"measurement": "EC50", "setting": "[1]", "value": 126, "unit": "µM"},
      {"measurement": "Ki", "setting": "[2]", "value": 0.251, "unit": "µM"}
    ]},
    {"smiles": "CC(C)(C#N)NC(=O)[C@H](Cc1ccccc1)NC(=O)c1ccccc1", "note": "[Compound 8, (2S)-N-(1-cyano-1-methylethyl)-3-phenyl-2-(phenylformamido)propanamide]", "values": [
      {"measurement": "Ki", "setting": "[2]", "value": 3.16, "unit": "µM"}
    ]},
    {"smiles": "N#CCNC(=O)[C@H](Cc1cccc(Cl)c1)NC(=O)c1ccccc1", "note": "[Compound 9, (2S)-3-(3-chlorophenyl)-N-(cyanomethyl)-2-(phenylformamido)propanamide]", "values": [
      {"measurement": "melting point", "value": "176 to 178", "unit": "°C"},
      {"measurement": "killing at 32 µM", "setting": "[4]", "value": "24 ± 1", "unit": "%"},
      {"measurement": "killing at 32 µM", "setting": "[1]", "value": "17 ± 2", "unit": "%"},
      {"measurement": "EC50", "setting": "[1]", "value": 100, "unit": "µM"},
      {"measurement": "Ki", "setting": "[2]", "value": 0.251, "unit": "µM"},
      {"measurement": "cytotoxicity at 32 µM", "setting": "[5]", "value": "12 ± 1", "unit": "%"}
    ]},
    {"smiles": "N#CCNC(=O)[C@H](Cc1ccc(O)cc1)NC(=O)c1ccccc1", "note": "[Compound 10, (2S)-N-(cyanomethyl)-3-(4-hydroxyphenyl)-2-(phenylformamido)propanamide]", "values": [
      {"measurement": "melting point", "value": "209 to 210", "unit": "°C"},
      {"measurement": "killing at 32 µM", "setting": "[4]", "value": "18 ± 1", "unit": "%"},
      {"measurement": "killing at 32 µM", "setting": "[1]", "value": "32 ± 4", "unit": "%"},
      {"measurement": "EC50", "setting": "[1]", "value": 200, "unit": "µM"},
      {"measurement": "Ki", "setting": "[2]", "value": 0.2, "unit": "µM"},
      {"measurement": "cytotoxicity at 32 µM", "setting": "[5]", "value": "18 ± 3", "unit": "%"}
    ]},
    {"smiles": "N#CCNC(=O)[C@H](Cc1ccc(OC(=O)c2ccccc2)cc1)NC(=O)c1ccccc1", "note": "[Compound 11, 4-[(2S)-2-[(cyanomethyl)carbamoyl]-2-(phenylformamido)ethyl]phenyl benzoate]", "values": [
      {"measurement": "melting point", "value": "254 to 256", "unit": "°C"},
      {"measurement": "killing at 32 µM", "setting": "[4]", "value": "17 ± 1", "unit": "%"},
      {"measurement": "killing at 32 µM", "setting": "[1]", "value": "16 ± 6", "unit": "%"},
      {"measurement": "EC50", "setting": "[1]", "value": "> 316", "unit": "µM"},
      {"measurement": "Ki", "setting": "[2]", "value": 1.26, "unit": "µM"},
      {"measurement": "cytotoxicity at 32 µM", "setting": "[5]", "value": "8 ± 5", "unit": "%"}
    ]},
    {"smiles": "N#CCNC(=O)[C@H](CCCNC(=N)N)NC(=O)c1ccccc1", "note": "[Compound 13, (2S)-5-carbamimidamido-N-(cyanomethyl)-2-(phenylformamido)pentanamide]", "values": [
      {"measurement": "melting point", "value": "117 to 118", "unit": "°C"},
      {"measurement": "Ki", "setting": "[2]", "value": 126, "unit": "µM"}
    ]},
    {"smiles": "N#CCNC(=O)C1(NC(=O)c2ccccc2)CCCC1", "note": "[Compound 14, N-(1-[(cyanomethyl)carbamoyl]cyclopentyl)benzamide]", "values": [
      {"measurement": "melting point", "value": "165 to 166", "unit": "°C"},
      {"measurement": "killing at 32 µM", "setting": "[4]", "value": "9 ± 1", "unit": "%"},
      {"measurement": "killing at 32 µM", "setting": "[1]", "value": "25 ± 4", "unit": "%"},
      {"measurement": "EC50", "setting": "[1]", "value": 200, "unit": "µM"},
      {"measurement": "Ki", "setting": "[2]", "value": 7.94, "unit": "µM"},
      {"measurement": "cytotoxicity at 32 µM", "setting": "[5]", "value": "18 ± 1", "unit": "%"}
    ]},
    {"smiles": "N#CCNC(=O)[C@H](Cc1ccccc1)NC(=O)C(F)(F)F", "note": "[Compound 15, (2S)-N-(cyanomethyl)-3-phenyl-2-(trifluoroacetamido)propanamide]", "values": [
      {"measurement": "Ki", "setting": "[2]", "value": 3.98, "unit": "µM"}
    ]},
    {"smiles": "N#CCNC(=O)[C@H](Cc1ccccc1)NC(=O)c1cccs1", "note": "[Compound 16, (2S)-N-(cyanomethyl)-3-phenyl-2-(thiophen-2-ylformamido)propanamide]", "values": [
      {"measurement": "killing at 32 µM", "setting": "[4]", "value": "24 ± 2", "unit": "%"},
      {"measurement": "killing at 32 µM", "setting": "[1]", "value": "30 ± 11", "unit": "%"},
      {"measurement": "EC50", "setting": "[1]", "value": 63.1, "unit": "µM"},
      {"measurement": "Ki", "setting": "[2]", "value": 0.794, "unit": "µM"},
      {"measurement": "cytotoxicity at 32 µM", "setting": "[5]", "value": "19 ± 4", "unit": "%"}
    ]},
    {"smiles": "N#CCNC(=O)[C@H](Cc1ccccc1)NC(=O)c1ccco1", "note": "[Compound 17, (2S)-N-(cyanomethyl)-2-(furan-2-ylformamido)-3-phenylpropanamide]", "values": [
      {"measurement": "melting point", "value": "176 to 179", "unit": "°C"},
      {"measurement": "killing at 32 µM", "setting": "[4]", "value": "21 ± 2", "unit": "%"},
      {"measurement": "killing at 32 µM", "setting": "[1]", "value": "36 ± 1", "unit": "%"},
      {"measurement": "EC50", "setting": "[1]", "value": 100, "unit": "µM"},
      {"measurement": "Ki", "setting": "[2]", "value": 0.501, "unit": "µM"},
      {"measurement": "cytotoxicity at 32 µM", "setting": "[5]", "value": "24 ± 0.2", "unit": "%"}
    ]},
    {"smiles": "N#CCNC(=O)[C@H](Cc1ccccc1)NC(=O)c1ccncn1", "note": "[Compound 18, (2S)-N-(cyanomethyl)-3-phenyl-2-(pyrimidin-4-ylformamido)propanamide]", "values": [
      {"measurement": "melting point", "value": "171 to 173", "unit": "°C"},
      {"measurement": "killing at 32 µM", "setting": "[4]", "value": "18 ± 1", "unit": "%"},
      {"measurement": "killing at 32 µM", "setting": "[1]", "value": "17 ± 2", "unit": "%"},
      {"measurement": "EC50", "setting": "[1]", "value": 200, "unit": "µM"},
      {"measurement": "Ki", "setting": "[2]", "value": 1.26, "unit": "µM"},
      {"measurement": "cytotoxicity at 32 µM", "setting": "[5]", "value": "20 ± 1", "unit": "%"}
    ]},
    {"smiles": "N#CCNC(=O)[C@H](Cc1ccccc1)NC(=O)c1cnccn1", "note": "[Compound 19, (2S)-N-(cyanomethyl)-3-phenyl-2-(pyrazin-2-ylformamido)propanamide]", "values": [
      {"measurement": "killing at 32 µM", "setting": "[4]", "value": "21 ± 8", "unit": "%"},
      {"measurement": "killing at 32 µM", "setting": "[1]", "value": "22 ± 7", "unit": "%"},
      {"measurement": "EC50", "setting": "[1]", "value": 79.4, "unit": "µM"},
      {"measurement": "Ki", "setting": "[2]", "value": 1.58, "unit": "µM"},
      {"measurement": "cytotoxicity at 32 µM", "setting": "[5]", "value": "14 ± 1", "unit": "%"}
    ]},
    {"smiles": "N#CCNC(=O)[C@H](Cc1ccccc1)NC(=O)c1cncc(Br)c1", "note": "[Compound 20, (2S)-2-[(5-bromopyridin-3-yl)formamido]-N-(cyanomethyl)-3-phenylpropanamide]", "values": [
      {"measurement": "killing at 32 µM", "setting": "[4]", "value": "25 ± 8", "unit": "%"},
      {"measurement": "killing at 32 µM", "setting": "[1]", "value": 0, "unit": "%"},
      {"measurement": "Ki", "setting": "[2]", "value": 0.251, "unit": "µM"},
      {"measurement": "cytotoxicity at 32 µM", "setting": "[5]", "value": "17 ± 1", "unit": "%"}
    ]}
  ]
}
